Read-outs that look alike come from different tables or passages of the source.
Key:
AsPC1 = assay: MTS cell proliferation assay, AsPC1; assay type: cell-based, human
Experimental: (§1) Cancer cells (breast cancer cell lines MCF-7, MDA-MB-361, SKBR3 and MDA-MB-231, pancreatic cancer cell lines AsPC-1. BxPC3 and Panc-1) were seeded in 96-well plates at a density of 1000-2000 cells/well and treated with DMSO, 0.01, 0.1, 1, 5, 10, and […] of STAT3 individual inhibitors for 72 hrs. Proliferation was measured by treating cells with the 3-(4,5-dimethylthiazol-2-yl)-5-(3-carboxymethoxyphenyl)-2-(4-sulfophenyl)-2H-tetrazolium) (MTS) in a CellTiter 96t AQueous Non-Radioactive Cell Proliferation Assay kit from Promega, Madison, Wis., USA). Absorbance of all wells was determined by measuring OD at 550 nm after 1 hr incubation at 37° C. on a 96-well iMark™ Microplate Absorbance Reader (BioRad, Hercules, Calif.). Each individual compound was tested in quadruplicate wells for each concentration, and the results were reported as mean absorption±s.e.
(§2) In Vitro Determination of Effects of Synthesized Compounds on Cancer Cell Proliferation. Cancer cells (breast cancer cell lines MCF-7 and MDA-MB-231, pancreatic cancer cell lines AsPC-1 and Panc-1) were seeded in 96-well plates at a density of 2×10^3 cells/well and treated with DMSO, 0.01, 0.1, 1, 5, 10, and 100 μM of individual STAT3 inhibitors for 72 h. Proliferation was measured by treating cells with the 3-(4,5-dimethylthiazol-2-yl)-5-(3-carboxymethoxyphenyl)-2-(4-sulfophenyl)-2H-tetrazolium) (MTS) in a CellTiter 96t Aqueous Non-Radioactive Cell Proliferation Assay kit (Promega, Madison, Wis., USA). Absorbance of all wells was determined by measuring OD at 550 nm after 1 h incubation at 37° C. on a 96-well iMark™ Microplate Absorbance Reader (BioRad, Hercules, Calif.). Each individual compound was tested in quadruplicate wells for each concentration.

MCF-7 = assay: MTS cell proliferation assay, MCF-7; assay type: cell-based, human
Method in brief: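 MCF-7 human breast cancer cells were exposed to test compounds at a range of concentrations, then proliferation was measured with the MTS reagent from Promega's CellTiter 96 AQueous Non-Radioactive Cell Proliferation Assay kit. After 1 hr at 37° C., OD at 550 nm was read on a 96-well iMark Microplate Absorbance Reader, with quadruplicate wells per concentration.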

MDA-MB-231 = assay: MTS cell proliferation assay, MDA-MB-231; assay type: cell-based, human
Method in brief: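 Cells are exposed to DMSO or STAT3 inhibitors at 0.01-100 μM for 72 h, or at 1, 5 and 10 μM. Proliferation is read by MTS absorbance at 550 or 560 nm after 1 h at 37 °C. Each concentration is run in quadruplicate wells.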

Panc-1 = assay: MTS cell proliferation assay, Panc-1; assay type: cell-based, human
Experimental: as §1, §2

[1] = system: STAT3 promoter activity in MDA-MB-231 cells; assay: Transient transfection and dual luciferase reporter assay (pSTAT3-Luc); assay type: cell-based, human; conditions: Homo sapiens, MDA-MB-231, read-out: inhibition of STAT3 promoter activity at 5 μM; 24 h, compared with control; Example 4 numbering
Experimental: MDA-MB-231 cells were pre-treated with niclosamide or 11 at different concentrations for 24 h. The STAT3 promoter activity in MDA-MB-231 cells was determined after transient transfecting with pSTAT3-Luc vector.
Transient Transfection and Dual Luciferase Reporter Assays. MBA-MB-231 cells were seeded in 24-well plate at a density of 5×10^4 cells/well in RPMI-1640 medium containing 10% FBS and 1% penicillin-streptomycin. Transient transfections were performed 4 h after plating, using the method described previously (Rees, D. C. et al., 2004; Shen, Q. et al., 2008). Total amount of DNA for transfections was 0.5 μg/well, including pSTAT3-Luc (95%, obtained from Panomics, Cat# LR0077) and internal control vector renilla (5%, from Promega, Madison, Wis., USA). 5 h after transfection, the cells were treated with compound […] for 24 h, then reporter activity was evaluated using dual luciferase reporter assay kit (Promega, Madison, Wis., USA) on an Omega™ Microplate Luminometer (BMG LABTECH Inc., NC, USA). Relative luciferase units were the ratio of the absolute activity of firefly luciferase to that of renilla luciferase. Experiments were conducted with triplicates and results are representatives of at least 3 independent experiments.

[2] = assay type: in vivo; conditions: mouse, in vivo, 150 mg/kg
Experimental: Female nude mice at 4 to 6 wk of age were obtained from MDACC ERO facility. The mice were maintained in a barrier unit with 12 hours light-dark switch room and all materials were autoclaved. Freshly harvested MDA-MB-231 cells (2.5×10^6 cells per mouse, resuspended in 100 μl PBS) were injected into the 3rd mammary fat pad of the mice, and then mice were randomly assigned into control and treatment groups (≧6 mice per group). Treatment started when the xenograft mammary tumors reaches a volume of 200 mm^3. […] Mice were monitored daily for general health conditions (body weight, fur coat condition and posture) and toxicity (hair loss, skin rash, abdominal distension). […] Tumor volume was calculated as V=W^2×L/2, where L=longer diameter (mm) and W=width of short diameter (mm). […]
Female nude mice were obtained from MDACC and were used for orthotopic tumor studies at 4 to 6 weeks of age. […] Body weights and tumors volume were measured daily and tumor volume was calculated according to the formula V=0.5×L×W^2, where L=length (mm) and W=width (mm).
Twenty-two female nude mice (8 wks of age) were obtained from MDACC ERC Center. […] Body weights and tumors volume were measured daily and tumor volume calculated using the formula V=0.5×L×W^2, where L=length (mm) and W=width (mm) of xenograft tumors. Signs of toxicity were recorded individually. […]

[3] = system: MCF-7, MDA-MB-231, AsPC1 and Panc-1; assay: MTS proliferation assays, breast and pancreatic cancer cell line panel; assay type: cell-based, human; conditions: Example 4 numbering
Experimental: as §2

MDA-MB-361 = assay: MTS cell proliferation assay, MDA-MB-361; assay type: cell-based; conditions: Homo sapiens, ER-positive breast cancer, 72 hrs, >10 = no effect, read-out: IC50 MDA-MB-361 (Table 1)
Experimental: as §1

BxPc-3H = assay: MTS cell proliferation assay, BxPc-3H; assay type: cell-based; conditions: Homo sapiens; pancreatic cancer, 72 hrs; >10 = no effect; read-out: IC50 BxPc-3H (Table 1)
Experimental: as §1

SKBR3 = assay: MTS cell proliferation assay, SKBR3; assay type: cell-based; conditions: Homo sapiens, SK-BR-3; ER-negative breast cancer, 72 hrs; >10 = no effect; read-out: IC50 SKBR3 (Table 1)
Experimental: as §1

[4] = system: MDA-MB-231 xenograft tumors; assay: MDA-MB-231 xenograft tumor growth in nude mice; assay type: in vivo; conditions: i.p., 2.5, 7.5 and 12.5 mg/kg
[5] = Homo sapiens, MCF7; Example 4 numbering, 72 h; >10 = no effect; read-out: IC50 MCF-7 (Table 5)
[6] = Homo sapiens, MDA-MB-231, Example 4 numbering, 72 h, >10 = no effect, read-out: IC50 MDA-MB-231 (Table 5)
[7] = Homo sapiens, ASPC1, pancreatic cancer, 72 hrs, >10 = no effect, read-out: IC50 AsPC1 (Table 1)
[8] = Homo sapiens, MCF7, 72 h; read-out: IC50 MCF-7 (Table 1)
[9] = Homo sapiens, MDA-MB-231, ER-negative breast cancer, 72 hrs, >10 = no effect, read-out: IC50 MDA-MB-231 (Table 1)
[10] = Homo sapiens, PANC-1, pancreatic cancer, 72 hrs, >10 = no effect, read-out: IC50 Panc-1 (Table 1)
[11] = MCF-7, 48 hr, μM concentrations

| Molecule | antiproliferative activity in words (Example 4) [3] | IC50 (AsPC1; [7]) [nM] | IC50 (MCF-7; [8]) [nM] | IC50 (MDA-MB-231; [9]) [nM] | IC50 (MDA-MB-361) [nM] | IC50 (Panc-1; [10]) [nM] | IC50 (BxPc-3H) [nM] | IC50 (SKBR3) [nM] | further results |
| --- | --- | --- | --- | --- | --- | --- | --- | --- | --- |
| O=C(Nc1ccc2c(c1)S(=O)(=O)C=C2)c1cc(-c2ccccc2)nc2ccccc12 [Compound 5] |  |  |  |  |  |  |  |  | IC50 (AsPC1; Homo sapiens, ASPC1, 72 h, read-out: IC50 AsPC1 (Table 4)): 1250 nM; IC50 (AsPC1; Homo sapiens, ASPC1, 72 h, read-out: IC50 AsPC1 (Table 5)): 1250 nM; IC50 (MCF-7; Homo sapiens, MCF7, 72 h, read-out: IC50 MCF-7 (Table 4)): 100 nM; IC50 (MCF-7; Homo sapiens, MCF7, 72 h, read-out: IC50 MCF-7 (Table 5)): 100 nM; IC50 (MDA-MB-231; Homo sapiens, MDA-MB-231, 72 h, read-out: IC50 MDA-MB-231 (Table 4)): 290 nM; IC50 (MDA-MB-231; Homo sapiens, MDA-MB-231, 72 h, read-out: IC50 MDA-MB-231 (Table 5)): 290 nM; IC50 (Panc-1; Homo sapiens, PANC-1, 72 h, read-out: IC50 Panc-1 (Table 4)): 260 nM; IC50 (Panc-1; Homo sapiens, PANC-1, 72 h, read-out: IC50 Panc-1 (Table 5)): 260 nM; inhibition at 5 µM [1]: ~65%; signs of toxicity at 150 mg/kg [2]: did not show significant signs of toxicity |
| O=C(Nc1ccc2c(c1)S(=O)(=O)C=C2)c1ccncc1 [Compound 21, N-(1,1-Dioxo-1H-1λ^6-benzo[b]thiophen-6-yl)isonicotinamide] | moderate to low antiproliferative activity |  |  |  |  |  |  |  | IC50 (MCF-7; [5]): > 10000 nM; IC50 (MDA-MB-231; [6]): > 10000 nM; melting point: 251 to 252 °C |
| O=C(Nc1ccc2c(c1)S(=O)(=O)C=C2)c1ccnc(-c2ccccc2)c1 [Compound 22, N-(1,1-Dioxo-1H-1λ^6-benzo[b]thiophen-6-yl)-2-phenyl-isonicotinamide] | low micromolar IC50 values |  |  |  |  |  |  |  | IC50 (AsPC1; Homo sapiens, ASPC1, Example 4 numbering, 72 h, >10 = no effect, read-out: IC50 AsPC1 (Table 5)): 1300 nM; IC50 (MCF-7; [5]): 3780 nM; IC50 (MDA-MB-231; [6]): 1850 nM; IC50 (Panc-1; Homo sapiens, PANC-1, Example 4 numbering, 72 h, >10 = no effect, read-out: IC50 Panc-1 (Table 5)): 3350 nM; melting point: 285 to 286 °C |
| CC(=O)Nc1ccc(NC(=O)c2cc(Cl)ccc2O)c(Cl)c1 [HJC-1-40, N-(4-Acetylamino-2-chlorophenyl)-5-chloro-2-hydroxybenzamide] |  | 37600 | > 10000 | 66300 | 22800 | > 10000 | > 10000 | 11200 |  |
| O=C(Nc1ccc2c(c1)S(=O)(=O)C=C2)c1c2ccccc2nc2ccccc12 [HJC-1-41, Acridine-9-carboxylic acid (1,1-dioxo-1H-1λ^6-benzo[b]thiophen-6-yl)amide] |  |  |  |  | 170000 |  | > 10000 | > 10000 | IC50 (AsPC1; Homo sapiens, ASPC1, 72 h, read-out: IC50 AsPC1 (Table 1)): > 10000 nM; IC50 (MCF-7; Homo sapiens, MCF7, 72 h, read-out: IC50 MCF-7 (Table 1)): > 10000 nM; IC50 (MDA-MB-231; Homo sapiens, MDA-MB-231, 72 h, read-out: IC50 MDA-MB-231 (Table 1)): > 10000 nM; IC50 (Panc-1; Homo sapiens, PANC-1, 72 h, read-out: IC50 Panc-1 (Table 1)): > 10000 nM |
| O=C(Nc1ccc2c(c1)S(=O)(=O)C=C2)c1cc(Cl)ccc1O [HJC-1-49, 5-Chloro-N-(1,1-dioxo-1H-1λ^6-benzo[b]thiophen-6-yl)-2-hydroxybenzamide] |  | 1920 | 910 | 1640 | 2370 | 2340 | 1160 | 720 | inhibition on breast cancer cell proliferation (FIG. 1) (MCF-7; [11]): significant inhibition |
| O=C(Nc1nnc(-c2ccco2)o1)c1cc(Cl)ccc1O [HJC-1-51, 5-Chloro-N-(5-furan-2-yl-[1,3,4]oxadiazol-2-yl)-2-hydroxybenzamide] |  | > 10000 | > 10000 | > 10000 | > 10000 | > 10000 | 200000 | 42400 |  |
| NCCOc1ccc(Cl)cc1C(=O)Nc1ccc([N+](=O)[O-])cc1Cl [HJC-1-52, 2-(2-Aminoethoxy)-5-chloro-N-(2-chloro-4-nitrophenyl)benzamide] |  | 1900 | 910 | 1640 | 2370 | 1080 | 1070 |  | inhibition on breast cancer cell proliferation (FIG. 1) (MCF-7; [11]): significant inhibition; growth of xenograft tumors (FIG. 3) [4]: significantly suppresses tumor growth |
| Quinoline-3-carboxylic acid (1,1-dioxo-1H-1λ^6-benzo[b]thiophen-6-yl)amide [Compound 23] | moderate to low antiproliferative activity |  |  |  |  |  |  |  | IC50 (AsPC1; Example 4 numbering, 72 h, >10 = no effect, read-out: IC50 AsPC1 (Table 5)): 6970 nM; IC50 (MCF-7; Example 4 numbering, 72 h; >10 = no effect; read-out: IC50 MCF-7 (Table 5)): 2970 nM; IC50 (MDA-MB-231; Example 4 numbering, 72 h, >10 = no effect, read-out: IC50 MDA-MB-231 (Table 5)): 6210 nM; IC50 (Panc-1; Example 4 numbering, 72 h, >10 = no effect, read-out: IC50 Panc-1 (Table 5)): 7920 nM |
